Laboratory results from US20090298752A1, “APLIDINE TREATMENT OF CANCERS” (PHARMA MAR, S.A., priority 1999, published 2009).

What was measured:
lewis lung carcinomas = conditions: cited from earlier work
liver (AML-12) = assay: CellTiter96 (MTS) in vitro cytotoxicity assay; assay type: cell-based
From the text: (§1) In fact, the dose limiting toxicity in humans is skeletal muscle atrophy.

kidney (NRK-52E) cells = assay: CellTiter96 (MTS) in vitro cytotoxicity assay; assay type: cell-based
From the text: as §1

[1] = tested on: myelogenous stem cells (FDC-P1); assay: CellTiter96 (MTS) in vitro cytotoxicity assay; assay type: cell-based
From the text: as §1

skeletal muscle (L8) = assay: CellTiter96 (MTS) in vitro cytotoxicity assay; assay type: cell-based
From the text: as §1

cardiac H9 c2 (2-1) = assay: CellTiter96 (MTS) in vitro cytotoxicity assay; assay type: cell-based
From the text: as §1

[2] = Phase I, 1 h daily infusion x5 q3wk: toxicity and pharmacokinetics; assay type: in vivo, human
Protocol: The objectives are to determine the Maximum Tolerated Dose, the Dose Limiting Toxicity (DLT), the pharmacokinetics (PK) and the recommended dose for phase 2 studies that can be given in a daily 1 hour IV infusion×5 days q 3 weeks. Patients with solid tumours and low and intermediate grade Non-Hodgkin's Lymphomas were eligible. The daily starting dose of aplidine was 80 μg/m^2. Cohorts of 3 patients (pts) are treated at each level with dose escalation according to toxicity, 20 patients were treated with 6 dose levels ranging from 80 μg-720 μg/m^2, 1 patient is presently at the dose of 960 μg/m^2. At total of 48 cycles were administered. Non-haematological toxicities were grade 1 and 2 with fatigue reported in most pts. Grade 1 hypersensitivity reactions were documented in 7 patients. Other toxicities included nausea, anorexia, diarrhoea, and anxiety. […] PK analysis was performed in treatment course 1. Aplidine concentrations were analysed by LC tandem mass spectrography. […] Potentially therapeutic plasma concentrations ([…]) were achieved. […] Accrual is ongoing at 960 μg/m^2.

aplidine
activity in SC implanted tumour (lewis lung carcinomas): active | LD50 (liver (AML-12)): 1 µM | LD50 (kidney (NRK-52E) cells): 0.1 nM | LD50 [1]: 0.1 µM | LD50 (skeletal muscle (L8)): 0.1 nM | LD50 (cardiac H9 c2 (2-1)): 1 µM | DLT ([2]; 80-960 μg/m^2 daily x5): no DLT has been documented | Bilirubin Grade 1 ([2]; DL 1, 80 ug/m^2): 1 | Diarrhoea Grade 1 ([2]; DL 1, 80 ug/m^2): 1 | Fatigue Grade 1 ([2]; DL 1, 80 ug/m^2): 1 | Fatigue Grade 2 ([2]; DL 1, 80 ug/m^2): 2 | Fever Grade 1 ([2]; DL 1, 80 ug/m^2): 1 | Fever Grade 2 ([2]; DL 1, 80 ug/m^2): 1 | Haemoglobin Grade 1 ([2]; DL 1, 80 ug/m^2): 1 | Haemoglobin Grade 2 ([2]; DL 1, 80 ug/m^2): 2 | Hyper-sensitivity Grade 1 ([2]; DL 1, 80 ug/m^2): 1 | Hyper-sensitivity Grade 2 ([2]; DL 1, 80 ug/m^2): 1 | Motor neuropathy Grade 1 ([2]; DL 1, 80 ug/m^2): 3 | Motor neuropathy Grade 2 ([2]; DL 1, 80 ug/m^2): 2 | Myalgia/weakness Grade 2 ([2]; DL 1, 80 ug/m^2): 1 | Nausea Grade 1 ([2]; DL 1, 80 ug/m^2): 2 | SGOT Grade 1 ([2]; DL 1, 80 ug/m^2): 1 | Sensory neuropathy Grade 1 ([2]; DL 1, 80 ug/m^2): 2 | Sensory neuropathy Grade 2 ([2]; DL 1, 80 ug/m^2): 1 | Haemoglobin Grade 3 ([2]; DL 1, 80 ug/m^2, doubtful): 3 | Diarrhoea Grade 1 ([2]; DL 2, 120 ug/m^2): 2 | Fatigue Grade 1 ([2]; DL 2, 120 ug/m^2): 3 | Haemoglobin Grade 1 ([2]; DL 2, 120 ug/m^2): 2 | Hyper-sensitivity Grade 1 ([2]; DL 2, 120 ug/m^2): 1 | Nausea Grade 1 ([2]; DL 2, 120 ug/m^2): 1 | SGOT Grade 1 ([2]; DL 2, 120 ug/m^2): 1 | Sensory neuropathy Grade 1 ([2]; DL 2, 120 ug/m^2): 2 | Granulocytes Grade 2 ([2]; DL 2, 120 ug/m^2, doubtful): 1 | Haemoglobin Grade 3 ([2]; DL 2, 120 ug/m^2, doubtful): 1 | Haemoglobin Grade 4 ([2]; DL 2, 120 ug/m^2, doubtful): 2 | CPK Grade 4 ([2]; DL 3, 240 ug/m^2): 1 | Creatinine Grade 1 ([2]; DL 3, 240 ug/m^2): 2 | Diarrhoea Grade 2 ([2]; DL 3, 240 ug/m^2): 2 | Fatigue Grade 1 ([2]; DL 3, 240 ug/m^2): 1 | Fatigue Grade 2 ([2]; DL 3, 240 ug/m^2): 1 | Fatigue Grade 3 ([2]; DL 3, 240 ug/m^2): 1 | Haemoglobin Grade 1 ([2]; DL 3, 240 ug/m^2): 1 | Haemoglobin Grade 2 ([2]; DL 3, 240 ug/m^2): 1 | Myalgia/weakness Grade 1 ([2]; DL 3, 240 ug/m^2): 1 | Nausea Grade 1 ([2]; DL 3, 240 ug/m^2): 2 | Nausea Grade 2 ([2]; DL 3, 240 ug/m^2): 1 | SGOT Grade 1 ([2]; DL 3, 240 ug/m^2): 2 | Sensory neuropathy Grade 1 ([2]; DL 3, 240 ug/m^2): 1 | Granulocytes Grade 1 ([2]; DL 3, 240 ug/m^2, doubtful): 1 | Granulocytes Grade 2 ([2]; DL 3, 240 ug/m^2, doubtful): 2 | Haemoglobin Grade 4 ([2]; DL 3, 240 ug/m^2, doubtful): 2 | Creatinine Grade 1 ([2]; DL 4, 360 ug/m^2): 1 | Diarrhoea Grade 1 ([2]; DL 4, 360 ug/m^2): 1 | Fatigue Grade 2 ([2]; DL 4, 360 ug/m^2): 3 | Fever Grade 1 ([2]; DL 4, 360 ug/m^2): 1 | Haemoglobin Grade 1 ([2]; DL 4, 360 ug/m^2): 2 | Haemoglobin Grade 2 ([2]; DL 4, 360 ug/m^2): 2 | Hyper-sensitivity Grade 1 ([2]; DL 4, 360 ug/m^2): 1 | Hyper-sensitivity Grade 2 ([2]; DL 4, 360 ug/m^2): 1 | Motor neuropathy Grade 1 ([2]; DL 4, 360 ug/m^2): 1 | Nausea Grade 1 ([2]; DL 4, 360 ug/m^2): 1 | Nausea Grade 3 ([2]; DL 4, 360 ug/m^2): 1 | SGOT Grade 1 ([2]; DL 4, 360 ug/m^2): 2 | Sensory neuropathy Grade 1 ([2]; DL 4, 360 ug/m^2): 1 | Sensory neuropathy Grade 2 ([2]; DL 4, 360 ug/m^2): 1 | Granulocytes Grade 1 ([2]; DL 4, 360 ug/m^2, doubtful): 1 | Haemoglobin Grade 3 ([2]; DL 4, 360 ug/m^2, doubtful): 1 | Haemoglobin Grade 4 ([2]; DL 4, 360 ug/m^2, doubtful): 2 | CPK Grade 1 ([2]; DL 5, 540 ug/m^2): 1 | Diarrhoea Grade 1 ([2]; DL 5, 540 ug/m^2): 2 | Fatigue Grade 2 ([2]; DL 5, 540 ug/m^2): 2 | Fatigue Grade 3 ([2]; DL 5, 540 ug/m^2): 1 | Fever Grade 2 ([2]; DL 5, 540 ug/m^2): 1 | Haemoglobin Grade 1 ([2]; DL 5, 540 ug/m^2): 1 | Haemoglobin Grade 2 ([2]; DL 5, 540 ug/m^2): 1 | Hyper-sensitivity Grade 1 ([2]; DL 5, 540 ug/m^2): 1 | Motor neuropathy Grade 1 ([2]; DL 5, 540 ug/m^2): 1 | Motor neuropathy Grade 2 ([2]; DL 5, 540 ug/m^2): 1 | Myalgia/weakness Grade 1 ([2]; DL 5, 540 ug/m^2): 1 | Nausea Grade 1 ([2]; DL 5, 540 ug/m^2): 2 | Nausea Grade 3 ([2]; DL 5, 540 ug/m^2): 1 | SGOT Grade 1 ([2]; DL 5, 540 ug/m^2): 2 | Sensory neuropathy Grade 1 ([2]; DL 5, 540 ug/m^2): 2 | Sensory neuropathy Grade 2 ([2]; DL 5, 540 ug/m^2): 1 | Granulocytes Grade 1 ([2]; DL 5, 540 ug/m^2, doubtful): 1 | Haemoglobin Grade 4 ([2]; DL 5, 540 ug/m^2, doubtful): 2 | Bilirubin Grade 1 ([2]; DL 6, 720 ug/m^2): 1 | CPK Grade 1 ([2]; DL 6, 720 ug/m^2): 1 | Diarrhoea Grade 1 ([2]; DL 6, 720 ug/m^2): 1 | Fatigue Grade 1 ([2]; DL 6, 720 ug/m^2): 1 | Fatigue Grade 4 ([2]; DL 6, 720 ug/m^2): 1 | Fever Grade 1 ([2]; DL 6, 720 ug/m^2): 1 | Haemoglobin Grade 2 ([2]; DL 6, 720 ug/m^2): 2 | Hyper-sensitivity Grade 3 ([2]; DL 6, 720 ug/m^2): 1 | Motor neuropathy Grade 3 ([2]; DL 6, 720 ug/m^2): 1 | Myalgia/weakness Grade 4 ([2]; DL 6, 720 ug/m^2): 1 | Nausea Grade 1 ([2]; DL 6, 720 ug/m^2): 3 | SGOT Grade 1 ([2]; DL 6, 720 ug/m^2): 2 | Sensory neuropathy Grade 1 ([2]; DL 6, 720 ug/m^2): 1 | Haemoglobin Grade 3 ([2]; DL 6, 720 ug/m^2, doubtful): 2 | Haemoglobin Grade 4 ([2]; DL 6, 720 ug/m^2, doubtful): 2 | Fatigue Grade 2 ([2]; DL 7, 960 ug/m^2): 2 | Haemoglobin Grade 2 ([2]; DL 7, 960 ug/m^2): 2 | Nausea Grade 1 ([2]; DL 7, 960 ug/m^2): 1 | Nausea Grade 2 ([2]; DL 7, 960 ug/m^2): 1 | Sensory neuropathy Grade 1 ([2]; DL 7, 960 ug/m^2): 1 | Granulocytes Grade 1 ([2]; DL 7, 960 ug/m^2, doubtful): 1 | Haemoglobin Grade 4 ([2]; DL 7, 960 ug/m^2, doubtful): 1 | haematological toxicities ([2]; Example 10): no haematological toxicities | plasma concentrations achieved ([2]; Example 10): > 1000 ng/mL | Grade 1 hypersensitivity reactions ([2]; Example 10, 20 patients): 7 patients | neuropathy or myopathy ([2]; Example 16): No clear evidence of neuropathy or myopathy | total body / plasma clearance ([2]; median): 0.38 L/min
